Test results taken from US20090098145A1, “METHODS AND COMPOSITIONS FOR TREATING OPHTHALMIC CONDITIONS VIA MODULATION OF MEGALIN ACTIVITY” (Sirion Therapeutics, Inc., priority 2006, published 2009).

Legend:
megalin [1] = assay: Megalin protein level in mouse eyecup membrane fractions by immunoblot; format: in vivo; conditions: MPR-treated mice compared to age-matched wild-type and abcr knockout mice; two immunoreactive bands
Protocol: FIG. 12. Illustrates megalin protein level in the eye cup from mice with different serum RBP-retinol levels. LDL receptors function to uptake RBP-retinol into RPE. RBP knockout mouse and MPR-treated mouse have lower serum RBP-retinol level. Expression of megalin in eyecup tissues from these mice were examined by immunoblot. Membrane fractions of mouse eyecups were prepared from wild-type mouse (WT), RBP knockout mouse (RBP−/−), ABCR null (abcr−/−) and MPR-treated mice (MPR). Two immunoreactive bands were detected (indicated by white arrows in the figure).
Preparation of Megalin-enriched Membranes from Whole Tissue—Sucrose density centrifugation was used to separate the membranous constituents from kidney, retina and RPE-eyecup (RPE plus choroid and sclera) samples. Following dissection, tissue samples were homogenized in a buffer containing 0.25 M sucrose (pH 7.5). The homogenates were centrifuged at 27,000×g for 20 min. The supernatant fraction was discarded and the resulting pellet (P1) was homogenized in a buffer containing 0.5% CHAPS. […]
Immunoblot Analyses—Protein samples which were used for immunoblot analyses were resuspended in SDS loading buffer. […] The membrane was washed four times, developed with ChemiGlow West Substrate (Alpha Innotech, San Leandro, Calif.) and then visualized by a luminescence imager (Fluor Chem from Alpha Innotech).

[2] = in vivo; cited from earlier work
[3] = target: LDL receptors (on human RPE cells); assay: cell-based or functional assay
human RPE cells [4] = assay: Uptake of RBP-retinol in human RPE cell cultures after antibody or RAP blocking (HPLC of intracellular atRE and atROL); format: cell-based; conditions: RAP added to basal chamber, 2 hours at 4° C.; RBP-retinol (10 μM) in basal media; vs pre-immune rabbit IgG
human RPE cells [5] = assay: Uptake of Alexa Fluor 488-labelled RBP* and IRBP* by RPE cells with and without RAP (fluorescence microscopy, retinyl esters by HPLC); format: cell-based
Protocol: FIG. 13. Illustrates uptake of RBP- and IRBP-retinol into human RPE. Holo-RBP and IRBP were covalently labeled with a fluorescent probe (Alexa Fluor 488). The labeled proteins (RBP* and IRBP*) were added to either the basal (RBP*) or apical (IRBP*) compartments of the RPE cell culture system. Following a 1 hour incubation at 37° C., the media were removed, the cells were extensively washed and the tissues samples analyzed by fluorescence microscopy.
FIG. 14. Illustrates that RAP inhibits basal uptake of RBP-retinol and apical uptake of IRBP-retinol. Uptake of IRBP* and RBP* by RPE cells was monitored before (panels A and B, respectively) and after (panels D and E, respectively) treatment with the LDL receptor antagonist, RAP. […] To ensure that retinol was also taken into the RPE cells, the cells were washed, collected and analyzed for retinoid content by HPLC. Uptake of retinol into RPE cells results in rapid esterification resulting in retinyl ester formation.

LRP = LRP (Homo sapiens, UniProt Q07954); conditions: cited from earlier work
gp330 = gp330 (Rattus norvegicus, UniProt P98158); conditions: cited from earlier work
VLDL receptor = VLDL receptor (Homo sapiens, UniProt P98155); conditions: cited from earlier work
LDL receptor = LDL receptor (Homo sapiens, UniProt P01130); conditions: cited from earlier work
megalin [6] = target: megalin (Homo sapiens, UniProt P98164); conditions: cited from earlier work
megalin (Homo sapiens, UniProt P98164), sequence (P98164 26-4655, species assumed): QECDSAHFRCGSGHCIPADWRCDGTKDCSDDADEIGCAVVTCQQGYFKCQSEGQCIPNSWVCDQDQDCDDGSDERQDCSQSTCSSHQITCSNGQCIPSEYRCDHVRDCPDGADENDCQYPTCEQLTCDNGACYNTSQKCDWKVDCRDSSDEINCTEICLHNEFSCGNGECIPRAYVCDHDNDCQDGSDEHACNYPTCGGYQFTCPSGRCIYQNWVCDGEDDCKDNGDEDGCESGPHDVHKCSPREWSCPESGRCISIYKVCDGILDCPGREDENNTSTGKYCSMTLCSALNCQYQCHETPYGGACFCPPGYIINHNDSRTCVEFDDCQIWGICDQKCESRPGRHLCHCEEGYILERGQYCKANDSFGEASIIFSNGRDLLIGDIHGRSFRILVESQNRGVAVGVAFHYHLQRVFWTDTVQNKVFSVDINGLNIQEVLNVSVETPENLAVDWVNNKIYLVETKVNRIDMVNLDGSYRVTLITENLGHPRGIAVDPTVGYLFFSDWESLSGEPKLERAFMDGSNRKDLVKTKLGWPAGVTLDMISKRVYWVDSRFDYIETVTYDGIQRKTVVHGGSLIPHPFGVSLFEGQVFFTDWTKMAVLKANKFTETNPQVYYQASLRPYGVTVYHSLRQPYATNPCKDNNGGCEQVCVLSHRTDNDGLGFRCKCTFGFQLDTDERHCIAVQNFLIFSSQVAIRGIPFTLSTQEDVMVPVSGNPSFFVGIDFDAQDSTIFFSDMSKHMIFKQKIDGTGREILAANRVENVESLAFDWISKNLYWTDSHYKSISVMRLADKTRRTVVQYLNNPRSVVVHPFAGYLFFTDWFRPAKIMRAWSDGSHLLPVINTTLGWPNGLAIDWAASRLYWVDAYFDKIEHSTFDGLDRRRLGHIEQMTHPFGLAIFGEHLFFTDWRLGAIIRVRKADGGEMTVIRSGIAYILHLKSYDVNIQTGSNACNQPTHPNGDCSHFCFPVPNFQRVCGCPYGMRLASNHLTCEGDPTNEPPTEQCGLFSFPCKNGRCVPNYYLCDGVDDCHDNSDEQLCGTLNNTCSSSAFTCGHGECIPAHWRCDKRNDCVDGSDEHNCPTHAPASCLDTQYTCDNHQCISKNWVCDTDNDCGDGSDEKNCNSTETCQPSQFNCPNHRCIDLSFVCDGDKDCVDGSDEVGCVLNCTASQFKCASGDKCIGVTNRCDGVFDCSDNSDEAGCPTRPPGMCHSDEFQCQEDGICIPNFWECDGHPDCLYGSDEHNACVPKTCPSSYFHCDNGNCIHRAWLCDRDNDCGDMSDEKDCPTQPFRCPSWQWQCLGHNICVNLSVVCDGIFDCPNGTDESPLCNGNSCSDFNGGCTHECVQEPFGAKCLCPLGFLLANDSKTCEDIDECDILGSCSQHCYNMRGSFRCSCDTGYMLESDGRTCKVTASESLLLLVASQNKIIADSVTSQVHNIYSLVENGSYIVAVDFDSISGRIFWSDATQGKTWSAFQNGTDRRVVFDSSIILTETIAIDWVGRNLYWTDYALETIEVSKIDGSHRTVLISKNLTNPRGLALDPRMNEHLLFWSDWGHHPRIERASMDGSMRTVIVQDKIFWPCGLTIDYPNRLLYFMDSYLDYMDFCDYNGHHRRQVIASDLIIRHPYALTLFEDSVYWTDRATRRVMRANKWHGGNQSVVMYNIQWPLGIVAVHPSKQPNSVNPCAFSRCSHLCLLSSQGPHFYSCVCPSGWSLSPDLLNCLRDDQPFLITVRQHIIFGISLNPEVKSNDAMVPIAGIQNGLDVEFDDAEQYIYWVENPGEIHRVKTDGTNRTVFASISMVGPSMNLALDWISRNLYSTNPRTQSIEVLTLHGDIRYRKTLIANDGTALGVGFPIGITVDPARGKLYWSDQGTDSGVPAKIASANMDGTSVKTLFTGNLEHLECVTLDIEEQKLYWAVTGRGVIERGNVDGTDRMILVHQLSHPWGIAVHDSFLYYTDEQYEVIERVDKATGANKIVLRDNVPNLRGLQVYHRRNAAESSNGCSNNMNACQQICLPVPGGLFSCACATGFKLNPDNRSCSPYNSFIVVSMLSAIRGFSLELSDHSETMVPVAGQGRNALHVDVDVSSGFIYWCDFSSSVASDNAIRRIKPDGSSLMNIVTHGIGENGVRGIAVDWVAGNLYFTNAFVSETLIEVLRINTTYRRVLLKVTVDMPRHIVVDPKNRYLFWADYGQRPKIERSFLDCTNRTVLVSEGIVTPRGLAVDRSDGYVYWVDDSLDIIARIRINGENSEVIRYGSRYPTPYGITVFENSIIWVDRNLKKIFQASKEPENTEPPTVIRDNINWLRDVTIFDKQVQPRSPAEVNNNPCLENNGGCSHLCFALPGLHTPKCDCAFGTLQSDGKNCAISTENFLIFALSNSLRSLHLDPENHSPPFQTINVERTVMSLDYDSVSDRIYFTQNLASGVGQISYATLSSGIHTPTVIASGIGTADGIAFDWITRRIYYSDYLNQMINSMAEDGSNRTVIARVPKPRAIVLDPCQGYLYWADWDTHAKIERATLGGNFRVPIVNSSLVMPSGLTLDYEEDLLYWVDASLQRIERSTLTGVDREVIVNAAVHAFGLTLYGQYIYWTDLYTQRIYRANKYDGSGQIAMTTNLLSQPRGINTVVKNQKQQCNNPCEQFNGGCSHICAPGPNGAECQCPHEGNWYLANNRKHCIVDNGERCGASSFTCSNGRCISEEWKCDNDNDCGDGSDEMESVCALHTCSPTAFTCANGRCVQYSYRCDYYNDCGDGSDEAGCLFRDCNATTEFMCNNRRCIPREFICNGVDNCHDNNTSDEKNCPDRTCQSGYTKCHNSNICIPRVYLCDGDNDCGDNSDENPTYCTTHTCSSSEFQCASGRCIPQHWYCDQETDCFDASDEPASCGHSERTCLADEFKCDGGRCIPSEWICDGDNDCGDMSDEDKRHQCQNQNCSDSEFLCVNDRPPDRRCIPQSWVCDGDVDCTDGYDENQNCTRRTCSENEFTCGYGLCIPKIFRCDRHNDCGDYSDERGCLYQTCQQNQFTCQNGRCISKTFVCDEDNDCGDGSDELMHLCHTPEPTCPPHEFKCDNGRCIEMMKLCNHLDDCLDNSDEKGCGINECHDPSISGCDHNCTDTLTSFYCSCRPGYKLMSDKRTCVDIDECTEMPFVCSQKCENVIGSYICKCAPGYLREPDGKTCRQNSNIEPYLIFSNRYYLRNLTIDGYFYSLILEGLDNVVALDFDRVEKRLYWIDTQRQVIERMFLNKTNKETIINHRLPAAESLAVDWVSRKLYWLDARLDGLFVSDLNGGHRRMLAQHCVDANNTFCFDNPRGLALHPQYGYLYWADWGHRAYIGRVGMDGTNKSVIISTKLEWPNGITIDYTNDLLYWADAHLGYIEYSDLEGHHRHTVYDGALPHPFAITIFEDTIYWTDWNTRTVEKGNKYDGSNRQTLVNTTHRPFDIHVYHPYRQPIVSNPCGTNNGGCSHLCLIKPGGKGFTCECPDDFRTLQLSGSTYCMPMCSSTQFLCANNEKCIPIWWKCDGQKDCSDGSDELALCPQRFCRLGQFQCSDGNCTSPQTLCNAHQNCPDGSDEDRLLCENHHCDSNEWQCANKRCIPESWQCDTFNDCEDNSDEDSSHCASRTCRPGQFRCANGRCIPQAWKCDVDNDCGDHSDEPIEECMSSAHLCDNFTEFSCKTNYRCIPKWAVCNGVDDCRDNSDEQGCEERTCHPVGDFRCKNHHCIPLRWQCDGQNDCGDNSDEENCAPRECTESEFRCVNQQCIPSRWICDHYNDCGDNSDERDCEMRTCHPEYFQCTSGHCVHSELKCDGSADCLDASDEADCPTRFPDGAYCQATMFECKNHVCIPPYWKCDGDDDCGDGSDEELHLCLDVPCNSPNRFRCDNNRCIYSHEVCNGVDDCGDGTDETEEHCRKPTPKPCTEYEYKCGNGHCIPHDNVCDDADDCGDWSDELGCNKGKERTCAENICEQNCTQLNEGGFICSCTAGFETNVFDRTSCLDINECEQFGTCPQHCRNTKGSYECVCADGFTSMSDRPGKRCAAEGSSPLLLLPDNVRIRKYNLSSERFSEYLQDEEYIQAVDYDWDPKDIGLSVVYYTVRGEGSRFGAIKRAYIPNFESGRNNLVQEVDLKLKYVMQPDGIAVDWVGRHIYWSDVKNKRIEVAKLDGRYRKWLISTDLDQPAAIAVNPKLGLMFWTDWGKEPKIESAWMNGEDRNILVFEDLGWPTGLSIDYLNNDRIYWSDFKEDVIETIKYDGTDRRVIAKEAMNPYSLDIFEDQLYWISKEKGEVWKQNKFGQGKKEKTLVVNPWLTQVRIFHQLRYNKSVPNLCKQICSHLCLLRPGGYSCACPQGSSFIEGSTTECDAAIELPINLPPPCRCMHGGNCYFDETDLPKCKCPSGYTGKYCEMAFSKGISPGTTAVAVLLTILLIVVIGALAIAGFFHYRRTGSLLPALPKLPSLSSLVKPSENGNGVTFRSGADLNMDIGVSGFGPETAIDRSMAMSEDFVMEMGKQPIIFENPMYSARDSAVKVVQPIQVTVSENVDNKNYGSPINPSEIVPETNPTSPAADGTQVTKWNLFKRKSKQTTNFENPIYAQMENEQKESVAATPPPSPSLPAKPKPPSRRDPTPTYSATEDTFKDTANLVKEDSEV

[7] = RAP treatment, fluorescence microscopy

Q: For COc1ccc(NC(=O)\C=C(C)/C=C/C=C(C)\C=C\C2=C(C)CCCC2(C)C)cc1 (stereo in doubt) [MPR, 4-methoxyphenylretinamide], which “expression of megalin-immunoreactive proteins in eyecup” value (megalin [1]) is on record?
A: Its value is “reduced expression”.

Q: And the “retinol and RBP levels in serum” value [2]?
A: Its value is “reduce”.

Q: For “receptor-associated protein (RAP) obtained from Oxford Biomedical Research”, which inhibition of basal RBP-retinol uptake in human RPE cultures (HPLC of intracellular atRE and atROL) after RAP pre-treatment [3] is on record?
A: The inhibition of basal RBP-retinol uptake in human RPE cultures (HPLC of intracellular atRE and atROL) after RAP pre-treatment was 47%.

Q: And the reduction in retinol uptake as measured by retinyl ester content (HPLC) after RAP pre-treatment [3]?
A: Its reduction in retinol uptake as measured by retinyl ester content (HPLC) after RAP pre-treatment is 50%.

Q: For “RAP: 39 kDa receptor-associated protein, chaperone and universal ligand binding antagonist of LDL receptor gene family members”, which “inhibition of RBP-retinol uptake by RAP” value (human RPE cells [4]) is on record?
A: The value was 47%.

Q: And the “reduction in retinol uptake as measured by retinyl ester content” value (human RPE cells [5]; RAP pre-treatment, retinyl esters by HPLC)?
A: Its value is about 50%.

Q: What about the “apical uptake of IRBP*” value (human RPE cells [5]; [7]) of the same compound?
A: Its value is “completely suppressed”.

Q: And the “basal uptake of RBP*” value (human RPE cells [5]; [7])?
A: The value was “completely suppressed”.

Q: What about the Kd (LRP) of the same compound?
A: Its Kd is 4 nM.

Q: What about the Kd (gp330) of the same compound?
A: Its Kd is 8 nM.

Q: And the Kd (VLDL receptor)?
A: Its Kd is 0.7 nM.

Q: And the Kd (LDL receptor)?
A: The Kd was 500 nM.

Q: What about the “binding sites occupied on the receptor protein megalin” value (megalin [6]) of the same compound?
A: The value was “two”.

Q: For gentamicin [reference compound], which “molecules bound per megalin protein” value (megalin [6]) is on record?
A: The value was 60-100.
